Assays:
[1] = test system: Human Peripheral Blood CD4+ T cells
Protocol: (§1) Uncoupled respiration measurements were measured in adherent cells epithelioid carcinoma Panc-1 cells (ATCC, CRL-1469) with FCCP. Cells were cultured in Dulbecco's Modified Eagle's Medium (DMEM) supplemented with 10% FBS at 37 C, 5% CO2 incubator according to supplier information. Day before the assay, cells were detached using Trypsin-EDTA solution and seeded in XFe96 cell culture miniplates (Agilent) at 10,000 cells/well. Cells were incubated for 18 hr at 37 C, 5% CO2 incubator. To measure OCR, cells were washed, and cell culture medium was replaced by XF DMEM pH 7.4 supplemented with 10 mM glucose, 2 mM glutamine and 1 mM pyruvate.

[2] = test system: epithelioid carcinoma Panc-1 cells; conditions: 2 μM FCCP, FIGS. 1A-1C
Protocol: as §1

[3] = test system: Human Peripheral Blood NK cells; conditions: 1.5, 2, 2.5 or 3 μM, FIGS. 12A-12B
Protocol: NK cells were cultured as described herein (e.g., in Example 1).

Substance: FCCP
- OCR after the rotenone+antimycin A injection ([1]; T cells, FIGS. 2B, 3B): overestimation of OCR
- stability of uncoupled respiration during the 3 min of the measurement ([1]; T cells, after oligomycin, FIGS. 2A, 2C, 3A, 3C): inconsistent uncoupled respiration
- maximal respiration in titration of uncoupler ([1]; naïve CD4+ T cells, 0.5, 1, 1.5, 2, 2.5 or 3 μM, FIGS. 4A-4B): not as robust nor was there an increase in a dose-dependent manner
- oxygen consumption on addition of uncoupler [2]: robust increase in oxygen consumption
- maximal respiration in titration of uncoupler [3]: not as robust
